Measured values reported in patent US20250177393A1, “MODULATORS OF MYC FAMILY PROTO-ONCOGENE PROTEIN” (Nalo Therapeutics, priority 2022, published 2025).
Where two headings read alike, the source gives them in different places.

Legend:
[1] = target: T1, MycN (Homo sapiens, UniProt P04198); experiment: Degradation of MycN protein in SK-N-BE(2) cells (JESS/Western blot); type: cell-based; settings: for Dmax at 1 µM: read-out: % Degradation of MycN (SKNBE2) 24 h, 1 μM; for Dmax at 3 µM: read-out: % Degradation of MycN (SKNBE2) 24 h, 3 μM; for Dmax at 6 µM: read-out: % Degradation of MycN (SKNBE2) 24 h, 6 μM; for Dmax at 0.5 µM: read-out: % Degradation of MycN (SKNBE2) 24 h, 0.5 μM
T1 construct: endogenous in cells; host or cells: SK-N-BE(2)
T1 sequence (P04198 1-464): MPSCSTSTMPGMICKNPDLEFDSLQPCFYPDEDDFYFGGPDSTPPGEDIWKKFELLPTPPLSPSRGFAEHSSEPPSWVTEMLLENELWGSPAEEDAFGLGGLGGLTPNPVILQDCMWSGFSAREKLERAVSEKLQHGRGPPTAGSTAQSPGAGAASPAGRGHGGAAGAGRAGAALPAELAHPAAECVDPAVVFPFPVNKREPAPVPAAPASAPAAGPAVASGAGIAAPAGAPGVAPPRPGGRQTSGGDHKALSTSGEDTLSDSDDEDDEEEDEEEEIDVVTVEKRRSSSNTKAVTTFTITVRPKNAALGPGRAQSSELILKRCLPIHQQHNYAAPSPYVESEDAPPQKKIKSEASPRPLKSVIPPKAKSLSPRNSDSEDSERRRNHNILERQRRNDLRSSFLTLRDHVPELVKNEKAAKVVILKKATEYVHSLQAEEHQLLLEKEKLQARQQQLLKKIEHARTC
Procedure: (§1) For L363 cells (suspension), 1E6 cells were plated into each well of a 6 well plate. For SK—N-BE(2) cells (adherent), 5E5 cells were plated into each well of a 6 well dish. […] All compounds were diluted to 10 mM in DMSO. Cells were treated with the compound for 24 hrs, then for both cell types, media containing cells were removed from wells into a 15 ml centrifuge tube, and remaining adherent SK—N-BE(2) cells were also scraped from the wells into the appropriate tubes. Tubes were centrifuged, cells were washed with PBS then re-centrifuged to pellet cells. A RIPA buffer cocktail was added to the cells on ice for 5 mins. Cell lysates were clarified by centrifugation and stored at −80 degrees until required. BCA assay was performed on each lysate to determine the protein concentration. For validation studies of antibodies, lysates and antibodies were used at a number of concentrations (Lysates: 2, 1, 0.2 mg/ml; Antibodies: 1 in 50, 1 in 200 dilution). Once an appropriate lysate concentration and antibody concentration was determined, samples were screened in the JESS technology (Protein Simple, San Jose, CA—https://www.proteinsimple.com/jess.html). Target protein antibodies (n-myc and c-myc) were detected in the chemiluminescence channel and loading controls (tubulin and GAPDH) were detected using a Near Infra Red (NIR) labeled secondary antibody. For SK—N-EB2 adherent cells, 5E5 cells in 1.9 mls media were plated into 6 well dishes and incubated for 24 hrs. […] Cells were scrapped off the plate, centrifuged, washed with PBS, centrifuged, then a RIPA buffer cocktail added to the cells (100 ul), centrifuged and stored at −80 for later analysis. For L363 suspension cells, 1E6 cells were plated into 24 well dishes (950 ul media) and incubated for 24 hrs. […] Cells were aspirated into tubes, centrifuged, washed with PBS, centrifuged, then a RIPA buffer cocktail added to the cells (100 ul), centrifuged and stored at −80 for later analysis. For Western blot, a BCA (total protein) assay was run on all samples, these were then run in batches of 5 compounds plus control (DMSO) on each Western blot run—n-myc and c-myc were run in separate experiments in the chemiluminescence channel. Both tubulin and GAPDH were run as loading controls in all lanes in the near infra red channel.

[2] = target: T2, MycC (Homo sapiens, UniProt P01106); experiment: Degradation of MycC protein in L363 cells (JESS/Western blot); type: cell-based; settings: L-363 cells, 24 h; for Dmax at 0.5 µM: read-out: % Degradation of MycC (L-363) 24 h, 0.5 μM; for Dmax at 1 µM: read-out: % Degradation of MycC (L-363) 24 h, 1 μM; for Dmax at 3 µM: read-out: % Degradation of MycC (L-363) 24 h, 3 μM; for Dmax at 6 µM: read-out: % Degradation of MycC (L-363) 24 h, 6 μM
T2 construct: endogenous in cells; host or cells: L363
Procedure: as §1

T2 sequence (P01106 whole entry): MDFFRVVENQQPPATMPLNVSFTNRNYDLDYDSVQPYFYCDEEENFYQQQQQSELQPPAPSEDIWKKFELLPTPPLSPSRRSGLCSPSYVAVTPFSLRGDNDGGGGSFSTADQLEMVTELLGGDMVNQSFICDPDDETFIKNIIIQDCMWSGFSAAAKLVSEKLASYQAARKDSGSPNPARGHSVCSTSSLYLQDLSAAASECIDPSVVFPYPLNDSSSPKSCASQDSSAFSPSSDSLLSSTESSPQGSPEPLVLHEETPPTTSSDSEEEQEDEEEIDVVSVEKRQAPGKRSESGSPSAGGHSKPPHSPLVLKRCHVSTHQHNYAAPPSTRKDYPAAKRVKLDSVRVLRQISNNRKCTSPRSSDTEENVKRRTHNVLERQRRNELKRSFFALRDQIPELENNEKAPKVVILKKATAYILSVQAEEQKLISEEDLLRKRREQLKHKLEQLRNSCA

Row | SMILES | Dmax at 1 µM ([1]; SKNBE2 cells, 24 h, 1 μM) [%] | Dmax at 3 µM ([1]; SKNBE2 cells, 24 h, 3 μM) [%] | Dmax at 6 µM ([1]; SKNBE2 cells, 24 h, 6 μM) [%] | Dmax at 0.5 µM ([1]; SKNBE2 cells, 24 h, 0.5 μM) [%] | Dmax at 0.5 µM [2] [%] | Dmax at 1 µM [2] [%] | Dmax at 3 µM [2] [%] | Dmax at 6 µM [2] [%] | Dmax at 0.5 µM ([1]; SKNBE2, 24 h) [%] | Dmax at 1 µM ([1]; SKNBE2, 24 h) [%] | Dmax at 3 µM ([1]; SKNBE2, 24 h) [%] | Dmax at 6 µM ([1]; SKNBE2, 24 h) [%]
1 | CN1CC[C@@H](Nc2nccc(Nc3cc(C4CC4)[nH]n3)n2)[C@@H](F)C1 [Compound 42, N4-(5-Cyclopropyl-1H-pyrazol-3-yl)-N2-[(3S,4R)-3-fluoro-1-methyl-4-piperidyl]pyrimidine-2,4-diamine] | 20 to 49 | 20 to 49 | 50 to 79 |  |  |  |  |  |  |  |  | 
2 | F[C@@H]1CNCC[C@@H]1Nc1nccc(Nc2cc(C3CC3)[nH]n2)n1 [Compound 44, N^4-(5-Cyclopropyl-1H-pyrazol-3-yl)-N^2-[(3R,4S)-3-fluoro-4-piperidyl]pyrimidine-2,4-diamine] | 20 to 49 | 20 to 49 | 50 to 79 | < 20 | < 20 | 20 to 49 | 20 to 49 | < 20 |  |  |  | 
3 | c1cc(Nc2cc(C3CCCC3)[nH]n2)nc(NC2CCC3(CC2)CNC3)n1 [Compound 40, N^2-(2-Azaspiro[3.5]nonan-7-yl)-N^4-(5-cyclopentyl-1H-pyrazol-3-yl)pyrimidine-2,4-diamine] | 80 to 100 | 80 to 100 | 80 to 100 | 50 to 79 |  | < 20 | 80 to 100 | 80 to 100 |  |  |  | 
4 | c1cc(Nc2cc(C3CC3)[nH]n2)nc(NC2CCOCC2)n1 [Compound 65, N4-(5-Cyclopropyl-1H-pyrazol-3-yl)-N2-tetrahydropyran-4-yl-pyrimidine-2,4-diamine] | 50 to 79 | 80 to 100 | 80 to 100 | 20 to 49 | 20 to 49 | 80 to 100 | 80 to 100 | 80 to 100 |  |  |  | 
5 | Cn1cc(C(=O)N2CCC(Nc3nccc(Nc4cc(C5CC5)[nH]n4)n3)CC2)nn1 [Compound 37, (4-((4-((5-Cyclopropyl-1H-pyrazol-3-yl)amino)pyrimidin-2-yl)amino)piperidin-1-yl)(1-methyl-1H-1,2,3-triazol-4-yl)methanone] | < 20 | 20 to 49 | 20 to 49 |  |  |  | 20 to 49 | < 20 |  |  |  | 
6 | CN(CC12CNC(C1)C2)c1nccc(Nc2cc(C3CC3)[nH]n2)n1 [Compound 2, N^2-((2-Azabicyclo[2.1.1]hexan-4-yl)methyl)-N^4-(5-cyclopropyl-1H-pyrazol-3-yl)-N^2-methylpyrimidine-2,4-diamine] | < 20 | 20 to 49 | 50 to 79 | 20 to 49 |  |  |  |  |  |  |  | 
7 | c1cc(Nc2cc(C3CC3)[nH]n2)nc(NC2CCC3(CC2)CNC3)n1 [Compound 33, N^4-(5-Cyclopropyl-1H-pyrazol-3-yl)-N^2-(2-azaspiro[3.5]nonan-7-yl)pyrimidine-2,4-diamine] | 20 to 49 | 80 to 100 | 80 to 100 | 20 to 49 |  | < 20 | 20 to 49 | 80 to 100 |  |  |  | 
8 | c1cc(Nc2cc(C3CC3)[nH]n2)nc(NC2CC3(CNC3)C2)n1 [Compound 28, N^4-(5-cyclopropyl-1H-pyrazol-3-yl)-N^2-(2-azaspiro[3.3]heptan-6-yl)pyrimidine-2,4-diamine] |  |  | < 20 |  | < 20 | < 20 | < 20 | 20 to 49 |  |  |  | 
9 | c1cc(Nc2cc(C3CC3)[nH]n2)nc(NCC23CNC(C2)C3)n1 [Compound 3, N^2-((2-Azabicyclo[2.1.1]hexan-4-yl)methyl)-N^4-(5-cyclopropyl-1H-pyrazol-3-yl)pyrimidine-2,4-diamine] |  |  |  |  |  |  |  |  | < 20 | < 20 | < 20 | 20 to 49
10 | c1cc(Nc2cc(C3CCCC3)[nH]n2)nc(NC2CC3(CNC3)C2)n1 [Compound 30, N^4-(5-cyclopentyl-1H-pyrazol-3-yl)-N^2-(2-azaspiro[3.3]heptan-6-yl)pyrimidine-2,4-diamine] | < 20 |  | 50 to 79 | < 20 | 80 to 100 | 80 to 100 | 80 to 100 | 80 to 100 |  |  |  | 
